Measured values from publication PMC10924921, “Mi-2β promotes immune evasion in melanoma by activating EZH2 methylation” (Nature Communications, 2024).

Tests used:
Assay in all cases: biochemical
Design in all cases: KINOMEscan active-site competition binding panel (468 kinase assays), per cent of control at 1000 nM
Settings in all cases: KINOMEscan per cent of control (binding competition); read-out: Percent Control
EPHB1 = EPHB1 (Homo sapiens, UniProt P54762)
Excerpt: (§1) Figure S7 / Percent Control

EGFR(G719C) = EGFR(G719C) (Homo sapiens, UniProt P00533, G719C)
Excerpt: as §1

MARK1 = MARK1 (Homo sapiens, UniProt Q9P0L2)
Excerpt: as §1

MRCKA = molecular target: T1, MRCKA (Homo sapiens, UniProt Q5VT25)
T1 construct: gene CDC42BPA
Excerpt: as §1

BRAF(V600E) = BRAF(V600E) (Homo sapiens, UniProt P15056, V600E)
Excerpt: as §1

KIT(D816H) = KIT(D816H) (Homo sapiens, UniProt P10721, D816H)
Excerpt: as §1

CDC2L1 = molecular target: T2, CDC2L1 (Homo sapiens, UniProt P21127)
T2 construct: gene CDK11B
Excerpt: as §1

STK39 = STK39 (Homo sapiens, UniProt Q9UEW8)
Excerpt: as §1

BMPR1A = BMPR1A (Homo sapiens, UniProt P36894)
Excerpt: as §1

AKT1 = AKT1 (Homo sapiens, UniProt P31749)
Excerpt: as §1

CLK1 = CLK1 (Homo sapiens, UniProt P49759)
Excerpt: as §1

CDKL3 = CDKL3 (Homo sapiens, UniProt Q8IVW4)
Excerpt: as §1

EPHA2 = EPHA2 (Homo sapiens, UniProt P29317)
Excerpt: as §1

TIE1 = TIE1 (Homo sapiens, UniProt P35590)
Excerpt: as §1

PAK4 = PAK4 (Homo sapiens, UniProt O96013)
Excerpt: as §1

MARK3 = MARK3 (Homo sapiens, UniProt P27448)
Excerpt: as §1

CDKL5 = CDKL5 (Homo sapiens, UniProt O76039)
Excerpt: as §1

PIK3CA(H1047L) = PIK3CA(H1047L) (Homo sapiens, UniProt P42336, H1047L)
Excerpt: as §1

RIPK2 = RIPK2 (Homo sapiens, UniProt O43353)
Excerpt: as §1

CDK9 = CDK9 (Homo sapiens, UniProt P50750)
Excerpt: as §1

YSK1 = molecular target: T3, YSK1 (Homo sapiens, UniProt O00506)
T3 construct: gene STK25
Excerpt: as §1

NIK = molecular target: T4, NIK (Homo sapiens, UniProt Q99558)
T4 construct: gene MAP3K14
Excerpt: as §1

MET(Y1235D) = MET(Y1235D) (Homo sapiens, UniProt P08581, Y1235D)
Excerpt: as §1

ADCK4 = molecular target: T5, ADCK4 (Homo sapiens, UniProt Q96D53)
T5 construct: gene COQ8B
Excerpt: as §1

Chain of EPHA2 (P29317 whole entry): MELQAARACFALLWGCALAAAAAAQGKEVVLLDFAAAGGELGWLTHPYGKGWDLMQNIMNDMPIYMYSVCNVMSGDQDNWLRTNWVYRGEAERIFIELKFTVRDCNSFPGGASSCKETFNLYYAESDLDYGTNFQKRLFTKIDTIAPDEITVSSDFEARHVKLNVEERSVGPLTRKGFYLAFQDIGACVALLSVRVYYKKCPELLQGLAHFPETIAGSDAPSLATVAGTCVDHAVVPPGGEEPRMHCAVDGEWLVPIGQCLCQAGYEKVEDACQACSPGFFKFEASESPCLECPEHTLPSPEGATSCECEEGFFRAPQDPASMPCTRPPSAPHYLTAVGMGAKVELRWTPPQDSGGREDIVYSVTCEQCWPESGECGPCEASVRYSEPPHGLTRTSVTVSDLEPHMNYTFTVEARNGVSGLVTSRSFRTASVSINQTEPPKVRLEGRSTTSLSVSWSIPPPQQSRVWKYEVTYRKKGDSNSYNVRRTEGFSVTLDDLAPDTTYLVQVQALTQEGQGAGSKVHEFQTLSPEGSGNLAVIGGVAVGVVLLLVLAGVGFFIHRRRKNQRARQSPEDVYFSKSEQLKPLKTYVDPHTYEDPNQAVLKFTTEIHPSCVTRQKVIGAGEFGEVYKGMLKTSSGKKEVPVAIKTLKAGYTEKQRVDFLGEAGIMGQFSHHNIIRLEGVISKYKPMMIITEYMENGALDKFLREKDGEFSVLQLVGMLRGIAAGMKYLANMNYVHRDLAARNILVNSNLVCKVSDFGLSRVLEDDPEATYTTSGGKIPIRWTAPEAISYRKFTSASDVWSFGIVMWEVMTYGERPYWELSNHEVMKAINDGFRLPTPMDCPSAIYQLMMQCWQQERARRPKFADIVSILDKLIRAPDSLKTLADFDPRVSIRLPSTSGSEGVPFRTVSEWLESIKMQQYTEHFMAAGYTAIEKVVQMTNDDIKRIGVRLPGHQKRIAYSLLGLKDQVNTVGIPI
Chain of MET(Y1235D) (P08581 whole entry Y1235D): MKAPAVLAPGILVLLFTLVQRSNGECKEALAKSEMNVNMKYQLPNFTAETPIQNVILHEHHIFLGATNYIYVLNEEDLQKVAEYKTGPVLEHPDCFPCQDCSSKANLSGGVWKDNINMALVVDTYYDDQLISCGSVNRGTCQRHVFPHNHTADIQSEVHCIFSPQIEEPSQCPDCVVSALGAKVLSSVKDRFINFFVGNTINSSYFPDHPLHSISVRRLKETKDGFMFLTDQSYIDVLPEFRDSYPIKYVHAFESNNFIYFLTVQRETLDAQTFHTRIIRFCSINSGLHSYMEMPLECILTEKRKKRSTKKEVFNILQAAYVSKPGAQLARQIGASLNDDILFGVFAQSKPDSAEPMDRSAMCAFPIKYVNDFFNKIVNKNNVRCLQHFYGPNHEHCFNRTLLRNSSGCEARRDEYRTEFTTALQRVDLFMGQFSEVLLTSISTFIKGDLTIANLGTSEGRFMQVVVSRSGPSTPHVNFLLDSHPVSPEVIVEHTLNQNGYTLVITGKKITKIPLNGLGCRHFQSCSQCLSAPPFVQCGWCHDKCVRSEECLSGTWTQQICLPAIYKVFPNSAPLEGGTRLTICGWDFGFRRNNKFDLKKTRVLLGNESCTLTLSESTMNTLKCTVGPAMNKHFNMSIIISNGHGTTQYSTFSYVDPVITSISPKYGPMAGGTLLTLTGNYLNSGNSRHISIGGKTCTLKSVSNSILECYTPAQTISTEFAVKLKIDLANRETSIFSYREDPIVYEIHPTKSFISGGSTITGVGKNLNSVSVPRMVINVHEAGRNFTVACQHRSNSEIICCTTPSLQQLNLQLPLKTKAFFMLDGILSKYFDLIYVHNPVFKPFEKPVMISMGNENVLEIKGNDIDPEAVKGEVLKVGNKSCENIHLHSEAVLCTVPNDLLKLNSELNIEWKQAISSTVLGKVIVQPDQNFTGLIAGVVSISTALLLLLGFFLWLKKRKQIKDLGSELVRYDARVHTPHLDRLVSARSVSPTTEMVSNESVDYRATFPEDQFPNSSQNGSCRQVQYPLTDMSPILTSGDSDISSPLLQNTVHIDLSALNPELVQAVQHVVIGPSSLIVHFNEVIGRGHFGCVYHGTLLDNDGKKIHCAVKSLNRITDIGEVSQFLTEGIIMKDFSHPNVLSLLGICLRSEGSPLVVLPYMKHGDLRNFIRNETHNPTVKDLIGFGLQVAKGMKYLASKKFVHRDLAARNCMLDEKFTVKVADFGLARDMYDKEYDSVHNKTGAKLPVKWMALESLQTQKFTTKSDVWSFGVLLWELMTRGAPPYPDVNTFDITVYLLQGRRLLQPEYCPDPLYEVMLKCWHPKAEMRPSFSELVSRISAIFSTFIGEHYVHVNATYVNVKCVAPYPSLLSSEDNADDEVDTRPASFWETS
Chain of EPHB1 (P54762 whole entry): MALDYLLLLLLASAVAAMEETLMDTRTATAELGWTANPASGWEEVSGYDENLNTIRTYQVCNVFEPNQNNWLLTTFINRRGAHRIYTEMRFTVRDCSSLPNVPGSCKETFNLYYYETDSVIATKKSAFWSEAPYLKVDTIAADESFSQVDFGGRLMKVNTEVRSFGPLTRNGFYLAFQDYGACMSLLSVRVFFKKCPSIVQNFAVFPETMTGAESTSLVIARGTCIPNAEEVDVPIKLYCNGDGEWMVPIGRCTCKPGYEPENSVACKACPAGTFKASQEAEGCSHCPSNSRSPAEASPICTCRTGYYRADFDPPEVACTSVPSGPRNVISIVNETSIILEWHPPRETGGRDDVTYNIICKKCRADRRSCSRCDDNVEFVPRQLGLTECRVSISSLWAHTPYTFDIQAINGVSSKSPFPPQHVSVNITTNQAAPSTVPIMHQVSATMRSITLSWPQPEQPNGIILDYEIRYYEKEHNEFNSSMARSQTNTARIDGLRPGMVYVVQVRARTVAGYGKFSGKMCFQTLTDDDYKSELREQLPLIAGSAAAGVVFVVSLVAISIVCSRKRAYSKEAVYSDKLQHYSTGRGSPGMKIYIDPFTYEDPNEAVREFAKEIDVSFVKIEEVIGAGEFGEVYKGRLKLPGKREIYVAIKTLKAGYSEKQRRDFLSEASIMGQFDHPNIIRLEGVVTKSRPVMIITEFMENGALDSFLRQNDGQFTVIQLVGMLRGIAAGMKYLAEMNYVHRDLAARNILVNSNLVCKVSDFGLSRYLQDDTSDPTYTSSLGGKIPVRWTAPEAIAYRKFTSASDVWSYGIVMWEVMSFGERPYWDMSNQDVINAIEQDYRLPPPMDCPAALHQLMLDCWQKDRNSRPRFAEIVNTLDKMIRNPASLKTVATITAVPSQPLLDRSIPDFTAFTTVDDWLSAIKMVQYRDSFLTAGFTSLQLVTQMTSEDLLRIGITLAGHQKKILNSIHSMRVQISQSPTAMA
Chain of MARK3 (P27448 whole entry): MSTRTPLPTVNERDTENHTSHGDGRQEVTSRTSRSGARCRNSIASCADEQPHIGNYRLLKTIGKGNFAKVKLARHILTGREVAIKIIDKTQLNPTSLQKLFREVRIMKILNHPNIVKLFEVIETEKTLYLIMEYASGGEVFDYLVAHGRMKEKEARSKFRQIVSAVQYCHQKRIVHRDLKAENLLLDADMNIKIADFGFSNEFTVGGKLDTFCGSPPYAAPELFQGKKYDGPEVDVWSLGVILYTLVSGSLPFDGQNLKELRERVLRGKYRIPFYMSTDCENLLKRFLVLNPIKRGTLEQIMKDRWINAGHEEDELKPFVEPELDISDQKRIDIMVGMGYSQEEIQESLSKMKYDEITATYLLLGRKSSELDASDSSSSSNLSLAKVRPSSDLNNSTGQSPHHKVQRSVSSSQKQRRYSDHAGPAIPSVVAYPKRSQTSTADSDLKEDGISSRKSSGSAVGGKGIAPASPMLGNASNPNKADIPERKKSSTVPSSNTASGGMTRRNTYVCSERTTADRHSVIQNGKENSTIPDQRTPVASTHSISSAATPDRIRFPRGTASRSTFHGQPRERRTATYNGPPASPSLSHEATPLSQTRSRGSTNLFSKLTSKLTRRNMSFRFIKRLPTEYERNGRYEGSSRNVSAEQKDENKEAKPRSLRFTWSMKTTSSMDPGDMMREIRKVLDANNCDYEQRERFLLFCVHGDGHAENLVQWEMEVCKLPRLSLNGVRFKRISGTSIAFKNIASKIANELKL
Chain of CLK1 (P49759 whole entry): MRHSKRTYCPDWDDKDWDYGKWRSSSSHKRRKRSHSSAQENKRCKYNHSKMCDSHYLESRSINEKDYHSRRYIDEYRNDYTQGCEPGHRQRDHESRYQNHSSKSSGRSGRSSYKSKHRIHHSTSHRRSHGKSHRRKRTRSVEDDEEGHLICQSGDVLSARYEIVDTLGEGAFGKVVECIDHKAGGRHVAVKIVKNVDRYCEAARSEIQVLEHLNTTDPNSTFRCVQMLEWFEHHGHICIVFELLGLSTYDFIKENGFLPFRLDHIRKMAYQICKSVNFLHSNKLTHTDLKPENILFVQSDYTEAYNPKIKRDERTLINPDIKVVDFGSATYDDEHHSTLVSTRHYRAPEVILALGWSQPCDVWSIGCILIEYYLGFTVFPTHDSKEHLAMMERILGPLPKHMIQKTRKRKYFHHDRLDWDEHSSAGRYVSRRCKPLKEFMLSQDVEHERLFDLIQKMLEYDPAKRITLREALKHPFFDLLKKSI
Chain of AKT1 (P31749 whole entry): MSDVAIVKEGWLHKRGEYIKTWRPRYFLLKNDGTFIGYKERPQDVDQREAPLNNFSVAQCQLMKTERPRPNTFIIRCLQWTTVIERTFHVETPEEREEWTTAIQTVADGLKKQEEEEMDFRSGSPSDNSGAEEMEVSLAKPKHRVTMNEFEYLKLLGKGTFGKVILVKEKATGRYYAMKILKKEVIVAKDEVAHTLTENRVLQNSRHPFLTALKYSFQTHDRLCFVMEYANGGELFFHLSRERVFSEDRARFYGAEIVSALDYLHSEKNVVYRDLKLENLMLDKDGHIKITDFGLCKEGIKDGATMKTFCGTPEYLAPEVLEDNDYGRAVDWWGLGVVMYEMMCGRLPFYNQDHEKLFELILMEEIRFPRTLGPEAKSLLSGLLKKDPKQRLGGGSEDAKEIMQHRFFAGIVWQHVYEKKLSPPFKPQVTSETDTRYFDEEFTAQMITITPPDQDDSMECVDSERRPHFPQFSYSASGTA

Cn1c(=O)[nH]c2ccc(-c3cccc(C(=O)NC4CCn5ccnc5C4)c3)cc21 (stereo not drawn) [Z36-MP5]
remaining binding at 1 µM (EPHB1): 89% | remaining binding at 1 µM (EGFR(G719C)): 79% | remaining binding at 1 µM (MARK1): 92% | remaining binding at 1 µM (MRCKA): 100% | remaining binding at 1 µM (BRAF(V600E)): 89% | remaining binding at 1 µM (KIT(D816H)): 78% | remaining binding at 1 µM (CDC2L1): 88% | remaining binding at 1 µM (STK39): 60% | remaining binding at 1 µM (BMPR1A): 100% | remaining binding at 1 µM (AKT1): 95% | remaining binding at 1 µM (CLK1): 96% | remaining binding at 1 µM (CDKL3): 59% | remaining binding at 1 µM (EPHA2): 88% | remaining binding at 1 µM (TIE1): 97% | remaining binding at 1 µM (PAK4): 41% | remaining binding at 1 µM (MARK3): 100% | remaining binding at 1 µM (CDKL5): 39% | remaining binding at 1 µM (PIK3CA(H1047L)): 90% | remaining binding at 1 µM (RIPK2): 94% | remaining binding at 1 µM (CDK9): 37% | remaining binding at 1 µM (YSK1): 98% | remaining binding at 1 µM (NIK): 46% | remaining binding at 1 µM (MET(Y1235D)): 93% | remaining binding at 1 µM (ADCK4): 64%
